Data as given in patent US9738655B2, “Tetrahydroisoquinolines containing substituted azoles as factor XIa inhibitors” (BRISTOL-MYERS SQUIBB COMPANY, priority 2013, dated 2017).
Counter-ions that a name gives are not always drawn. Like-named read-outs stand apart in the source and are kept apart here.

Assays:
[1] = biological target: purified human plasma kallikrein (Homo sapiens (Human), UniProt P03952); assay: Plasma kallikrein enzyme inhibition assay (chromogenic substrate S-2302); format: biochemical
Sequence of purified human plasma kallikrein (P03952 391-638): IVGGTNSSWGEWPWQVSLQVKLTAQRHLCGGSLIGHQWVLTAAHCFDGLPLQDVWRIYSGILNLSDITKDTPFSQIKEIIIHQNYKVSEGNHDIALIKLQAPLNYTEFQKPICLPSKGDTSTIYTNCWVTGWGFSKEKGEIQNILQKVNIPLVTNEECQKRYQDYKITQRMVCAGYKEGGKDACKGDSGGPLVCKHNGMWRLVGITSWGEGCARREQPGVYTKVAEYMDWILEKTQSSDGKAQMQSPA
Sequence of purified human plasma kallikrein (P03952 20-390 partner): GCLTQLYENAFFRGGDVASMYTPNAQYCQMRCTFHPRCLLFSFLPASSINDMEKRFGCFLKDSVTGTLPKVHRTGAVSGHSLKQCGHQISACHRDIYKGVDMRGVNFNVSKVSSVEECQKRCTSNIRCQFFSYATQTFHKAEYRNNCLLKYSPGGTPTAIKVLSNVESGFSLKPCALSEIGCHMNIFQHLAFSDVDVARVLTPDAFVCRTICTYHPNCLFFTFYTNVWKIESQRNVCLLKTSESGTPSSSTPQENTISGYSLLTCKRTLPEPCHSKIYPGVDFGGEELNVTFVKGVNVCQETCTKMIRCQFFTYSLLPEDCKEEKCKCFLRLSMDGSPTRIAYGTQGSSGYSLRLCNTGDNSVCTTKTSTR

[2] = biological target: purified human Factor XIa (Homo sapiens (Human), UniProt P03951); assay: Factor XIa enzyme inhibition assay (chromogenic substrate S-2366)
Sequence of purified human Factor XIa (P03951 388-625): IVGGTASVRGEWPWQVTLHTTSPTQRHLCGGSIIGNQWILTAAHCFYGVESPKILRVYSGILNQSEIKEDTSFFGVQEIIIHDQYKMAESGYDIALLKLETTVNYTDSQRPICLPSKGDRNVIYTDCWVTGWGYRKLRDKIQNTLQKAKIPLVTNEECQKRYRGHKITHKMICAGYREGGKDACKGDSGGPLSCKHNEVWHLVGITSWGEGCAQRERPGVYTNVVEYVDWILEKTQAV
Sequence of purified human Factor XIa (P03951 19-387 partner): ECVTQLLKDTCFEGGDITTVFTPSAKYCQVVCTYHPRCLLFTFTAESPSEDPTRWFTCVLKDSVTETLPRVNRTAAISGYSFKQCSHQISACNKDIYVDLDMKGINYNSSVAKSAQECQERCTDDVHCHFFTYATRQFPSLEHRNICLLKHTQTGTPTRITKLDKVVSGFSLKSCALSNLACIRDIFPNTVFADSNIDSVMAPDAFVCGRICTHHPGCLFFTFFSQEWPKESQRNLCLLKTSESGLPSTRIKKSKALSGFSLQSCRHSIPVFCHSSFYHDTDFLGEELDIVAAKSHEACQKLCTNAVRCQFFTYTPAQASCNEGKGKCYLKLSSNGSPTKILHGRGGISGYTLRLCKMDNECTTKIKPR
Procedure: The effectiveness of compounds of the present invention as inhibitors of the coagulation Factors XIa, VIIa, IXa, Xa, XIIa, plasma kallikrein or thrombin, can be determined using a relevant purified serine protease, respectively, and an appropriate synthetic substrate. The rate of hydrolysis of the chromogenic or fluorogenic substrate by the relevant serine protease was measured both in the absence and presence of compounds of the present invention. […] A decrease in the rate of absorbance or fluorescence change in the presence of inhibitor is indicative of enzyme inhibition. […] The results of this assay are expressed as the inhibitory constant, Ki.
Values of Ki were determined by allowing the protease to react with the substrate in the presence of the inhibitor.

[3] = measured at 25° C. (no asterisk)
[4] = read-out: Factor XIa Ki, measured at 25° C.

| Ki [1, 3] [nM] | Ki [2] [nM] | Ki [2, 4] [nM] | Ki ([1]; measured at 37° C. (*)) [nM] | SMILES |
| --- | --- | --- | --- | --- |
| 27.3 | < 5 | – | – | COC1CCN(c2cccc3c2CCN(C(=O)c2cn(-c4c(F)ccc(Cl)c4F)cn2)C3C(=O)Nc2ccc(C(=O)O)cc2)CC1 (racemic) [Example 312, 4-(2-(1-(3-chloro-2,6-difluorophenyl)-1H-imidazole-4-carbonyl)-5-(4-methoxypiperidin-1-yl)-1,2,3,4-tetrahydroisoquinoline-1-carboxamido)benzoic acid, TFA salt] |
| 5.37 | – | < 5 | – | O=C(O)c1ccc(NC(=O)[C@@H]2c3cccc(N4CCOCC4)c3CCN2C(=O)c2cn(-c3cccc(Cl)c3F)nn2)cc1 [Example 90, (S)-4-(2-(1-(3-Chloro-2-fluorophenyl)-1H-1,2,3-triazole-4-carbonyl)-5-morpholino-1,2,3,4-tetrahydroisoquinoline-1-carboxamido)benzoic acid, TFA salt] |
| 19.6 | – | < 5 | – | COC1CCN(c2cccc3c2CCN(C(=O)c2cnn(-c4cccc(Cl)c4F)c2)[C@@H]3C(=O)Nc2ccc(C(=O)O)cc2)CC1 [Example 315, (S)-4-(2-(1-(3-chloro-2-fluorophenyl)-1H-pyrazole-4-carbonyl)-5-(4-methoxypiperidin-1-yl)-1,2,3,4-tetrahydroisoquinoline-1-carboxamido)benzoic acid, TFA salt] |
| 540 | – | 411 | – | COC1CCN(c2cccc3c2CCN(C(=O)c2cn(-c4cccc(Cl)c4F)nn2)C3C(=O)Nc2ccc3c(c2)CCC(=O)N3C)CC1 (stereo not drawn) [Example 189, 2-(1-(3-Chloro-2-fluorophenyl)-1H-1,2,3-triazole-4-carbonyl)-5-(4-methoxypiperidin-1-yl)-N-(1-methyl-2-oxo-1,2,3,4-tetrahydroquinolin-6-yl)-1,2,3,4-tetrahydroisoquinoline-1-carboxamide, TFA salt] |
| – | – | < 5 | 65.3 | COC(=O)c1ccc2cc(NC(=O)C3c4cccc(-c5cncnc5)c4CCN3C(=O)c3cn(-c4cccc(Cl)c4F)nn3)ccc2n1 (stereo not drawn) [Example 128, methyl 6-(2-(1-(3-chloro-2-fluorophenyl)-1H-1,2,3-triazole-4-carbonyl)-5-(pyrimidin-5-yl)-1,2,3,4-tetrahydroisoquinoline-1-carboxamido) quinoline-2-carboxylate, TFA salt] |
| 229 | – | 26.6 | – | COC1CCN(c2cccc3c2CCN(C(=O)c2cnn(-c4cccc(Cl)c4)c2)C3C(=O)Nc2ccc(C(=O)O)cc2)CC1 (stereo not drawn) [Example 329, 4-(2-(1-(3-chlorophenyl)-1H-pyrazole-4-carbonyl)-5-(4-methoxypiperidin-1-yl)-1,2,3,4-tetrahydroisoquinoline-1-carboxamido)benzoic acid, TFA salt] |
| 1.96 | – | < 5 | – | CCOC(=O)c1ccc(NC(=O)C2c3cccc(N4CCC(N5CCCC5)CC4)c3CCN2C(=O)c2cn(-c3cccc(Cl)c3F)nn2)cc1 (stereo not drawn) [Example 219, Ethyl 4-(2-(1-(3-chloro-2-fluorophenyl)-1H-1,2,3-triazole-4-carbonyl)-5-(4-(pyrrolidin-1-yl)piperidin-1-yl)-1,2,3,4-tetrahydroisoquinoline-1-carboxamido)benzoate, 2 TFA salt] |
| 1.79 | – | < 5 | – | CN(C)C1CCN(c2cccc3c2CCN(C(=O)c2cnn(-c4cccc(Cl)c4F)c2)[C@@H]3C(=O)Nc2ccc(C(=O)O)cc2)CC1 (single isomer, unassigned) [Example 52, bis-TFA salt] |

| SMILES | Ki [1, 3] [nM] | Ki [2] [nM] | Ki [2, 4] [nM] | Ki ([1]; measured at 37° C. (*)) [nM] |
| --- | --- | --- | --- | --- |
| CN(C)CCNC(=O)c1ccc(-c2cccc3c2CCN(C(=O)c2cn(-c4cccc(Cl)c4F)nn2)[C@@H]3C(=O)Nc2ccc(C(=O)O)cc2)cc1 [Example 10, (S)-4-(2-(1-(3-Chloro-2-fluorophenyl)-1H-1,2,3-triazole-4-carbonyl)-5-(4-((2-(dimethylamino)ethyl)carbamoyl)phenyl)-1,2,3,4-tetrahydroisoquinoline-1-carboxamido)benzoic acid, TFA salt] | 1.08 | – | < 5 | – |
